Measurements taken from patent US20050032246A1, “Method of immobilizing membrane-associated molecules” (priority 2002, published 2005).

Key:
[1] = target: IMR-32 nAChR; type: binding, human; conditions: IMR-32 nAChR entrapped in DGS; constant 3H-epibetadine; FIG. 10
Method: Sodium silicate or DGS derived sol precursors were prepared by methods described previously.^64 The sol solution was mixed 1:1 (v/v) with the buffered liposome or reconstituted nAChR solution, in the bottoms of 96 well microtiter plates to a final volume of 100 μL. For entrapment of IMR-32 cells for ion flux assays, the nAChR containing stock described above was uses for entrapment without further dilution. For radioassays using IMR-32 nAChR, the stock sample as provided directly from Perkin Elmer was diluted four fold in 25 mM HEPES, 100 mM KCl, 5 mM EGTA, pH 7.4 and mixed 1:1 (v/v) in DGS derived sol. The samples were aged for 1 hr at 4° C. For Torpedo Californica nAChR, the stock sample was diluted four fold in 150 mM HEPES, 100 mM KCl, 5 mM EDTA, pH 7.4, and mixed 1:1 (v/v) with sodium silicate derived sol.
Samples of either entrapped Torpedo californica nAChR, IMR-32 nAChR or Asolectin liposomes were formed in the bottoms of 96-well microtiter plates. […] The radioactive decay from ^3H-epibatidine was then counted for 5 min to determine the ratio of free ligand existing in solution. […] Using the information from these samples the amount of receptor bound ligand could be determined. […] Free ligand was determined as described above.

[2] = test system: gramicidin A; test: Safranine O ion-channel activity assay of reconstituted gramicidin A entrapped in DGS derived silicate; type: biochemical; conditions: various levels of CaCl2 with 3.0 M KI; several hundred millimolar Ca2+ required; FIG. 6
Method: The Gramicidin A stock was prepared in a solution of chloroform, trifluoroethanol and dimethylsulfoxide (19:5:1 volume ratio) to a final concentration of 4.79×10^−4M. Gramicidin A stock solutions were mixed with the lipid stock solutions (20 mg.mL^−1 DOPC in chloroform) in disposable glass vials to provide final ratios of gA:lipid of either 0.39 mol % or 0.94 mol %. The organic solvent was removed by evaporation under a dry nitrogen gas stream to remove the bulk of the organic solvent, followed by evaporation under vacuum for two hours. […]
For ion-channel studies, reconstitution of gramicidin A samples was done using an unbuffered aqueous solution containing 50 μM safranine O at pH 7.0. […] Liposome solutions that were used for tryptophan fluorescence studies consisted of 0.94 mol % of gramicidin A in DOPC that was hydrated to final concentrations of 1.0 μM of gA in 100 mM phosphate buffer at pH 7.0. […]
The fluorescence intensity response of safranine O was monitored using the MICROMAX microwell plate reader. Fluorescence emission was monitored as a function of time at 565 nm with an excitation wavelength of 528 nm upon addition of 125 μL of various concentrations of potassium iodide to the top of the monolithic samples in the microwell plate to create an ionic gradient across the membrane. […]

[3] = test system: IMR-32 nAChR; type: biochemical, human
Method: Lipid films consisting of EggPC, EggPE, Sphingomylin and cholesterol in mol ratios of 55:27:9:9 percent, respectively, were prepared as described earlier, and rehydrated to a final lipid concentration of 3.0 mg/mL and Fluo-3 concentration of 65 μM. The liposome stock was then mixed with a small amount of DMM bringing the solution to a final concentration of 0.2 mM. Immediately following this, IMR-32 nAChR stock was added to the detergent lipid mixture and allowed to incubate at 4° C. for 90 min. Following this 15 mg of SM2-Biobeads were added to the mixture and incubated for 1 hr. This was repeated 3 times with the final addition allowed to incubate for a period of 12 hrs. […]
In these assays, IMR-32 nAChR containing liposomes with an intraliposomal solution of Fluo-3 were entrapped as described above in 1:1 (v/v) in DGS derived silica. […] Antagonism of the nAChR ion channel was measured by addition of 25 μL of the nAChR antagonist d-tubocurarine to the top of the nAChR-containing monolith in the 96-well plate. Ligand-gated ion-flux was monitored through time dependent changes in fluorescence intensity upon the addition of 50 μL of 3 M CaCl2 using a TECAN-Safire microwell platereading fluorescence system. Fluo-3 emission was monitored and 526 nm with an excitation wavelength of 488 nm, emission and excitation bandpasses of 5 and 7.5 nm, and a detector gain of 130 V, over a period of 45 min. […]

[4] = Fluo-3 Ca(II) influx into DOPC liposomes in buffered solution after addition of ionophore; type: biochemical; conditions: Ca(II) outside, fluo-3 inside, FIG. 14
Method: DOPC stock solutions were purchased in chloroform at a concentration of 20 mg.mL^−1. DOPC stock solution was dispensed in disposable glass vials and the organic solvent was removed by evaporation under a dry nitrogen gas stream to remove the bulk of the organic solvent, followed by evaporation under vacuum for two hours. The resulting dried lipid films were then rehydrated in a buffer consisting of 25 mM EGTA, 25 mM EDTA, 10% Sucrose (w/w), 10 mM KCl, 0.529 mM Fluo-3, pH 7.6 to a final lipid concentration of 2 mg/mL. The hydrated liposomes were then extruded through 600 nm pores, with an Avanti—MINIEXTRUDER at room temperature to create a mono-disperse suspension of unilamellar liposomes 600 nm in diameter. The external Fluo-3 was removed by filtration through a column packed with Sephadex G25 to yield liposomes with dye only on the interior of the liposome.
In this case, Ca(II) is initially present only outside the liposome, while fluo-3 is present only inside the liposome. The addition of ionomycin results in the incorporation of the ionophore into the membrane, and produces a channel through which Ca(II) can move into the interior of the liposome. […]

CN1CCCC1c1cccnc1 (single isomer, unassigned; (-)) [nicotine, (−)-nicotine]
IC50 and KI values compared with solution based experiments [1]: in good agreement with those obtained from solution based experiments

[Ca+2].[Cl-].[Cl-] [CaCl2]
potential induced fluorescence response to potassium ion flux (inhibition of ion-channel activity) [2]: significant and concentration-dependent decrease

O=c1cccc2n1C[C@@H]1CNC[C@H]2C1 [cytisine]
fluo-3 emission response to Ca(II) (ion flux) upon addition of agonist [3]: acts as an agonist

COc1cc2c3cc1Oc1cc(ccc1O)C[C@@H]1c4c(cc(OC)c(O)c4Oc4ccc(cc4)C[C@@H]3N(C)CC2)CC[N+]1(C)C [d-tubocurarine]
fluo-3 emission response to Ca(II) (ion flux) upon addition of antagonist ([3]; liposomes previously incubated with excess nicotine, FIG. 12): the response is reduced
IC50 and KI values compared with solution based experiments [1]: in good agreement with those obtained from solution based experiments

C[C@H](CCC(=O)O)C[C@H](C)C[C@H](C)C(=O)/C=C(\O)[C@H](C)C[C@H](C)C/C=C/[C@@H](C)[C@@H](O)[C@@H](C)[C@@H](O)C[C@@H]1CC[C@@](C)([C@H]2CC[C@@](C)([C@@H](C)O)O2)O1 [ionomycin]
increase of fluo-3 response on Ca(II) influx [4]: 3 fold
